Assay results published in patent publication US20250368687A1, “SHORT SYNTHETIC PEPTIDES AND USES THEREOF IN THE TREATMENT OF ENTEROVIRUS INFECTION” (CITY UNIVERSITY OF HONG KONG, priority 2024, published 2025).

Experiments:
Assay type in all cases: cell-based
[1] = test system: 2Apro-induced relocalization of Hsp27 and hnRNP A1 in RD cells; assay: Immunofluorescence colocalization assay of 2Apro-induced relocalization of Hsp27 and hnRNP A1; settings: 25 μM for 2 hours, transfected with 2Apro for 24 hours
Description: FIGS. 9A-9B Peptide S78 blocks the 2A^pro-induced relocalization of Hsp27 and hnRNP A1. RD cells on the coverslips were treated with peptides (S78, S78A, and S82A) at the concentration of 25 μM for 2 hours, and then transfected with 2A^pro for 24 hours. The cells were fixed and stained with anti-Hsp27and anti-hnRNPAI, followed by Alexa Fluor 488-conjugated anti-rabbit antibody and Alexa Fluor 594-conjugated anti-mouse antibody. The nuclei were stained with Hoechst. The images were captured by Nikon A1HD25 Confocal Microscope. The JACoP-plugin of the extended ImageJ version Fiji was used to compute the M1 colocalization coefficient, in which (FIG. 9A) is M1 colocalization coefficient for the fraction of Hsp27 in Hoechst and (FIG. 9B) is the M1 colocalization coefficient for the fraction of hnRNP A1 in Hoechst. Statistical analyses were carried out using Student's t-test. *: p<0.05, **: p<0.01, ***: p<0.001. Data are expressed as mean ±SD.
The cells on coverslips were infected with EV-A71 at the multiplicity of infection (MOI) of 40 for 6 hrs to assure the high efficiency of viral infection. Then the cells were fixed by 4% paraformaldehyde for 20 min, permeabilized by 0.5% Triton X-100 for 15 min, blocked with 5% BSA for 2 hrs, and stained by incubation with anti-Hsp27 (GTX101145) and anti-hnRNP A1 (sc-32301) antibody, then with Alexa Fluor 488 conjugated anti-rabbit antibody and Alexa Fluor 594 conjugated anti-mouse antibody respectively. After washing four times with 0.2% Triton X-100, the nuclei were stained with DAPI or Hoechst for 5 min. The images were captured by a Nikon A1HD25 High speed and Large Field of View Confocal Microscope. Colocalization analysis was conducted using the JACoP-plugin of the extended ImageJ version Fiji. The M1 colocalization coefficient was computed to illustrate the colocalization levels of Hsp27 and hnRNP A1 overlapped with Hoechst.

[2] = test system: EV-A71 VP1; assay: Western blot of EV-A71 VP1 level in RD cells; settings: for EV-A71 VP1 protein level (in words): indicated concentrations
Description: FIGS. 10A-10K. Peptide S78 inhibited EV-A71 replication and propagation. (FIG. 10A) RD cells were pre-treated with peptides S78 or for 2 hours and infected with EV-A71 at the MOI of 10 for 6 hours. Cell lysates were collected for western blot assay. Hsp27 phosphorylation on Ser 15, 78, 82 were detected by specific antibodies. β-Actin were detected as internal control. (FIG. 10B) Densitometric analysis of FIG. 9A. (FIG. 10C) HEK 293T cells were pre-treated with peptides S78 or S78A at the concentration of 25 μM for 2 hours and then co-transfected with Hsp27-WT plasmid (800 ng), pIRES reporter plasmid (200 ng) and 2A^pro-expressing plasmid or 2AC110A-expressing plasmid (200 ng) for 24 h, then the luciferase activity was measured. (FIG. 10D-10E) RD cells were treated with peptides S78 or S78A and then infected with EV-A71. EV-A71 VP1 were detected. (FIG. 10F) RD cells were treated with peptides and then infected with EV-A71 at the MOI of 1 for 12 hours. The EV-A71-induced CPE was captured. (FIG. 10G-10H) Intracellular viral RNA was extracted and quantified by qPCR. (FIG. 10I) Densitometric analysis FIG. 9D-E. (FIG. 10J) RD cells were treated with peptides S78 or and then infected with EV-A71 at the MOI of 1 for 12 hours. Extracellular viral RNA was extracted and quantified by qPCR. (FIG. 10K) Viral titration was calculated by TCID50. The Statistical analyses were carried out using Student's t-test. *: p<0.05, **: p<0.01, ***: p<0.001. Data are expressed as mean ±SD.
FIGS. 11A-11G Inhibition of EV-A71 Protein Translation and Viral Reproduction by peptide S82A. (FIG. 11A) HEK 293T cells were pre-treated with peptides NC, S78, S78A, S82A, or S78-3A at the concentration of 25 μM for 2 hours and then co-transfected with Hsp27-WT plasmid (800 ng), pIRES reporter plasmid (200 ng) and 2A^pro-expressing plasmid for 24 h, then the luciferase activity was measured. (FIG. 11B) RD cells were pre-treated with peptides NC at indicated concentrations for 2 hours and infected with EV-A71 at the MOI of 1 for 9 hours. Intracellular viral RNA was extracted and quantified by qPCR. (FIG. 11C-11E) RD cells were treated with peptides NC, S82A, or S78-3A at indicated concentrations for 2 hours and then infected with EV-A71 at the MOI of 1 for 9 hours. Cell lysates were collected for western blot assay. EV-A71 VP1 were detected. β-Actin was detected as an internal control. (FIG. 11F) Densitometric analysis of the EV-A71 VP1 level in FIG. S7C-E was quantified and normalized with β-Actin using ImageJ. (FIG. 11G) RD cells were treated with peptides S78, S78A, S82A, or S78-3A at the concentration of 25 μM for 2 hours and then infected with EV-A71 at the MOI of 0.1 for 24 hours. Viral titration was calculated. The Statistical analyses were carried out using Student's t-test. *: p<0.05, **: p<0.01, ***: p<0.001. Data are expressed as mean ±SD.
After cell lysis in Nonidet-P40 (NP-40) buffer, the cell lysates were centrifuged, and the concentration was determined by Bradford assay (Bio-Rad). 20 μg of protein was used for 12% SDS-PAGE and transferred onto polyvinylidene fluoride membrane (PVDF) (GE, MA, USA). Following 5% bovine serum albumin (BSA) blocking for 1 hrs, the membrane was incubated with antibodies (1:1000) against Hsp27 (sc-13132), pHsp27-Ser15 (ab76313), pHsp27-Ser78 (ADI-SPA-523), pHsp27-Ser82 (ab155987), VP1 (GTX132339), β-Actin (sc-47778), hnRNP A1 (sc-32301), or GAPDH (sc-32233) overnight in 4° C. After secondary antibodies (HRP-conjugated Affinipure Goat Anti-Mouse IgG(H+L), SA00001-1, and HRP-conjugated Affinipure Goat Anti-Rabbit IgG(H+L), SA00001-2) incubation for 1 hrs, the protein was visualized with a chemiluminescence reagent (PerkinElmer, MA, USA) on Bio-Rad Chemidoc Imaging System. The protein bands were quantified by densitometry with ImageJ if necessary.

[3] = CCK-8 assay; settings: human; RD cells, data not shown
Description: RD cells were seeded in 96-well cell plates (1×10^4/well) and placed in the 5% CO2 incubator for 1 day. Then the cells were treated with peptides for 2 days. 90 μl medium and 10 μl of CCK-8 (BioSharp, BS350B) was added to each well of the 96-well plate, which were incubated at 37° C. for 1 h. A microplate reader (BioTek, Synergy H1) was used to measure the OD value of each well at 450 nm.

Question: What does the source list for Ac-RKKRRQRRRAYSRALARQLSS-NH2 [S78A]?
Answer: 2Apro-induced relocalization of Hsp27 and hnRNP A1 [1]: still showed a certain cellular redistribution; reduction of VP1 level (densitometric assay) ([2]; 50 μM): about 60%; EV-A71 VP1 protein level (in words) [2]: much weaker; CC50 at 2 days [3]: > 600 µM

Question: Which “2Apro-induced relocalization of Hsp27 and hnRNP A1” value [1] does the source give for Ac-RKKRRQRRRAYSRALSRQLSS-NH2 [S78] here?
Answer: almost completely blocked

Question: And the “EV-A71 VP1 protein level at 50 μM (in words)” value ([2]; 50 μM)?
Answer: almost undetectable level

Question: And the “reduction of VP1 level (densitometric assay)” value ([2]; 50 μM)?
Answer: over 99%

Question: What about the “EV-A71 VP1 protein level (in words)” value [2] of the same substance?
Answer: dramatically decreased

Question: And the CC50 at 2 days [3]?
Answer: > 600 µM

Question: For “Ac-RKKRRQRRRYSREANQPKPSPKRESGEE-NH2 [NC, reference compound]”, which “EV-A71 VP1 protein level (in words)” value [2] is on record?
Answer: no effect
